melting point	Compound
136 to 137 °C	Cc1nc(N2C[C@@H](C)N(Cc3ccc(C(F)(F)F)cc3)C2=O)sc1C(=O)NCc1ccccn1 [Example 2.20, (R)-4-methyl-2-(4-methyl-2-oxo-3-(4-(trifluoromethyl)benzyl)imidazolidin-1-yl)-N-(pyridin-2-ylmethyl)thiazole-5-carboxamide]
273 to 274 °C	Cc1nnc(-c2sc(N3CCN(Cc4ccc(C(F)(F)F)cc4)C3=O)nc2C)[nH]1 [Example 3, 1-(4-methyl-5-(5-methyl-4H-1,2,4-triazol-3-yl)thiazol-2-yl)-3-(4-(trifluoromethyl)benzyl)imidazolidin-2-one]
248 to 249 °C	Cc1nnc(-c2sc(N3CCN(Cc4ccc(F)cc4)C3=O)nc2C)[nH]1 [Example 3.1, 1-(4-fluorobenzyl)-3-[4-methyl-5-(5-methyl-4H-1,2,4-triazol-3-yl)thiazol-2-yl]imidazolidin-2-one]
231 to 233 °C	Cc1cc(-c2sc(N3CCN(CC4CC4)C3=O)nc2C)n[nH]1 [Example 6, 1-(cyclopropylmethyl)-3-(4-methyl-5-(5-methyl-1H-pyrazol-3-yl)thiazol-2-yl)imidazolidin-2-one]
163 to 164 °C	Cc1cc(-c2sc(N3CCN(Cc4cccc(C(F)(F)F)c4)C3=O)nc2C)n[nH]1 [Example 6.1, 1-(4-methyl-5-(5-methyl-1H-pyrazol-3-yl)thiazol-2-yl)-3-(3-(trifluoromethyl)benzyl)imidazolidin-2-one]
218 to 221 °C	Cc1cc(-c2sc(N3CCN(Cc4ccc(F)cc4)C3=O)nc2C)n[nH]1 [Example 6.2, 1-(4-fluorobenzyl)-3-(4-methyl-5-(5-methyl-1H-pyrazol-3-yl)thiazol-2-yl)imidazolidin-2-one]
169 to 171 °C	Cc1nc(N2CCN(CC3CC3)C2=O)sc1-c1cc[nH]n1 [Example 7, 1-(cyclopropylmethyl)-3-(4-methyl-5-(1H-pyrazol-3-yl)thiazol-2-yl)imidazolidin-2-one]
147 to 149 °C	Cc1nc(N2CCN(CCC3CC3)C2=O)sc1-c1cc[nH]n1 [Example 8, 1-(2-cyclopropylethyl)-3-(4-methyl-5-(1H-pyrazol-3-yl)thiazol-2-yl)imidazolidin-2-one]
239 to 242 °C	Cc1nc(N2CCN(Cc3ccc(F)cc3)C2=O)sc1-c1cc[nH]n1 [Example 9, 1-(4-fluorobenzyl)-3-(4-methyl-5-(1H-pyrazol-3-yl)thiazol-2-yl)imidazolidin-2-one]
217 to 218 °C	Cc1nc(N2CCN(Cc3ccccc3)C2=O)sc1C(N)=O [Example 10, 2-(3-benzyl-2-oxoimidazolidin-1-yl)-4-methylthiazole-5-carboxamide]
284 to 287 °C	Cc1nnc(-c2sc(N3CCN(Cc4ccccc4)C3=O)nc2C)[nH]1 [Example 11, 1-benzyl-3-(4-methyl-5-(5-methyl-4H-1,2,4-triazol-3-yl)thiazol-2-yl)imidazolidin-2-one]
144 to 145 °C	Cc1nc(N2CCN(CC3CC3)C2=O)sc1C(=O)NCc1cncc(F)c1 [Example 12, 2-(3-(cyclopropylmethyl)-2-oxoimidazolidin-1-yl)-N-((5-fluoropyridin-3-yl)methyl)-4-methylthiazole-5-carboxamide]
167 to 169 °C	Cc1nc(N2CCN(CCCC(F)(F)F)C2=O)sc1C(=O)NCc1cccnc1 [Example 12.3, 4-methyl-2-(2-oxo-3-(4,4,4-trifluorobutyl)imidazolidin-1-yl)-N-(pyridin-3-ylmethyl)thiazole-5-carboxamide]
123 °C	Cc1cncc(CNC(=O)c2sc(N3CCN(CCCC(F)(F)F)C3=O)nc2C)n1 [Example 12.6, 4-methyl-N-((6-methylpyrazin-2-yl)methyl)-2-(2-oxo-3-(4,4,4-trifluorobutyl)imidazolidin-1-yl)thiazole-5-carboxamide]
178 to 181 °C	Cc1nc(N2CCN(CCCC(F)(F)F)C2=O)sc1C(=O)NCc1ccncc1 [Example 12.7, 4-methyl-2-(2-oxo-3-(4,4,4-trifluorobutyl)imidazolidin-1-yl)-N-(pyridin-4-ylmethyl)thiazole-5-carboxamide]
188 to 191 °C	Cc1nc(N2CCN(CC3CC3)C2=O)sc1C(=O)NCc1ccncn1 [Example 12.10, 2-(3-(cyclopropylmethyl)-2-oxoimidazolidin-1-yl)-4-methyl-N-(pyrimidin-4-ylmethyl)thiazole-5-carboxamide]
218 to 220 °C	Cc1nc(N2CCN(CC3CC3)C2=O)sc1C(=O)NCc1ncccn1 [Example 12.11, 2-(3-(cyclopropylmethyl)-2-oxoimidazolidin-1-yl)-4-methyl-N-(pyrimidin-2-ylmethyl)thiazole-5-carboxamide]
187 to 189 °C	Cc1nc(N2CCN(CC3CC3)C2=O)sc1C(=O)NCc1cccnn1 [Example 12.12, 2-(3-(cyclopropylmethyl)-2-oxoimidazolidin-1-yl)-4-methyl-N-(pyridazin-3-ylmethyl)thiazole-5-carboxamide]

melting point	Compound
> 200 °C	Cc1nc(N2CCN(CC3CC3)C2=O)sc1C(=O)NCc1ccncc1 [Example 12.13, 2-(3-(cyclopropylmethyl)-2-oxoimidazolidin-1-yl)-4-methyl-N-(pyridin-4-ylmethyl)thiazole-5-carboxamide]
165 to 167 °C	Cc1ncc(CNC(=O)c2sc(N3CCN(CC4CC4)C3=O)nc2C)s1 [Example 12.14, 2-(3-(cyclopropylmethyl)-2-oxoimidazolidin-1-yl)-4-methyl-N-((2-methylthiazol-5-yl)methyl)thiazole-5-carboxamide]
172 to 174 °C	Cc1nc(N2CCN(CC3CC3)C2=O)sc1C(=O)NCc1ncco1 [Example 12.15, 2-(3-(cyclopropylmethyl)-2-oxoimidazolidin-1-yl)-4-methyl-N-(oxazol-2-ylmethyl)thiazole-5-carboxamide]
188 to 191 °C	Cc1nc(N2CCN(Cc3ccc(F)cc3)C2=O)sc1C(=O)NCc1cocn1 [Example 12.16, 2-(3-(4-fluorobenzyl)-2-oxoimidazolidin-1-yl)-4-methyl-N-(oxazol-4-ylmethyl)thiazole-5-carboxamide]
185 to 187 °C	Cc1nc(N2CCN(CC(C)C)C2=O)sc1C(=O)NCc1ccncc1 [Example 12.17, 2-(3-isobutyl-2-oxoimidazolidin-1-yl)-4-methyl-N-(pyridin-4-ylmethyl)thiazole-5-carboxamide]
139 to 142 °C	Cc1cncc(CNC(=O)c2sc(N3CCN(CC(C)C)C3=O)nc2C)n1 [Example 12.20, 2-(3-isobutyl-2-oxoimidazolidin-1-yl)-4-methyl-N-((6-methylpyrazin-2-yl)methyl)thiazole-5-carboxamide]
155 to 158 °C	Cc1nc(N2CCN(CC(C)C)C2=O)sc1C(=O)NCc1cnn(C)c1 [Example 12.21, 2-(3-isobutyl-2-oxoimidazolidin-1-yl)-4-methyl-N-((1-methyl-1H-pyrazol-4-yl)methyl)thiazole-5-carboxamide]
158 to 161 °C	Cc1nc(N2CCN(CC(C)C)C2=O)sc1C(=O)NCc1ccn(C)n1 [Example 12.22, 2-(3-isobutyl-2-oxoimidazolidin-1-yl)-4-methyl-N-((1-methyl-1H-pyrazol-3-yl)methyl)thiazole-5-carboxamide]
139 to 140 °C	Cc1nc(-n2cnn(CCC3CC3)c2=O)sc1C(=O)NCc1cccnc1 [Example 13, 2-(1-(2-cyclopropylethyl)-5-oxo-1H-1,2,4-triazol-4(5H)-yl)-4-methyl-N-(pyridin-3-ylmethyl)thiazole-5-carboxamide]
169 to 170 °C	Cc1nc(-n2cnn(CC3CC3)c2=O)sc1C(=O)NCc1ccncc1 [Example 14, 2-(1-(cyclopropylmethyl)-5-oxo-1H-1,2,4-triazol-4(5H)-yl)-4-methyl-N-(pyridin-4-ylmethyl)thiazole-5-carboxamide]
167 to 168 °C	Cc1nc(-n2cnn(CC3CC3)c2=O)sc1C(=O)NCc1cc[nH]n1 [Example 14.1, N-((1H-pyrazol-3-yl)methyl)-2-(1-(cyclopropylmethyl)-5-oxo-1H-1,2,4-triazol-4(5H)-yl)-4-methylthiazole-5-carboxamide]
157 to 158 °C	Cc1nc(-n2cnn(CC3CC3)c2=O)sc1C(=O)NCc1cocn1 [Example 14.2, 2-(1-(cyclopropylmethyl)-5-oxo-1H-1,2,4-triazol-4(5H)-yl)-4-methyl-N-(oxazol-4-ylmethyl)thiazole-5-carboxamide]
160 to 161 °C	Cc1nc(-n2cnn(CC3CC3)c2=O)sc1C(=O)NCc1ccccn1 [Example 14.3, 2-(1-(Cyclopropylmethyl)-5-oxo-1H-1,2,4-triazol-4(5H)-yl)-4-methyl-N-(pyridin-2-ylmethyl)thiazole-5-carboxamide]
160 to 161 °C	Cc1nc(-n2cnn(CC3CC3(F)F)c2=O)sc1C(=O)NCc1cccnc1 (stereo not drawn) [Example 15, 2-(1-((2,2-difluorocyclopropyl)methyl)-5-oxo-1H-1,2,4-triazol-4(5H)-yl)-4-methyl-N-(pyridin-3-ylmethyl)thiazole-5-carboxamide]
169 to 171 °C	Cc1nc(N2CCN(CC3CC3(F)F)C2=O)sc1C(=O)NCc1cccnc1 (stereo not drawn) [Example 16, 2-(3-((2,2-difluorocyclopropyl)methyl)-2-oxoimidazolidin-1-yl)-4-methyl-N-(pyridin-3-ylmethyl)thiazole-5-carboxamide]
156 to 158 °C	Cc1nc(N2CCN(CC3CC3(F)F)C2=O)sc1C(=O)NCc1ncco1 (stereo not drawn) [Example 16.1, 2-(3-((2,2-difluorocyclopropyl)methyl)-2-oxoimidazolidin-1-yl)-4-methyl-N-(oxazol-2-ylmethyl)thiazole-5-carboxamide]
182 to 184 °C	Cc1nc(N2CCN(CC3CC3(F)F)C2=O)sc1C(=O)NCc1cncs1 (stereo not drawn) [Example 16.2, 2-(3-((2,2-difluorocyclopropyl)methyl)-2-oxoimidazolidin-1-yl)-4-methyl-N-(thiazol-5-ylmethyl)thiazole-5-carboxamide]
157 to 159 °C	Cc1csc(CNC(=O)c2sc(N3CCN(CC4CC4(F)F)C3=O)nc2C)n1 (stereo not drawn) [Example 16.3, 2-(3-((2,2-difluorocyclopropyl)methyl)-2-oxoimidazolidin-1-yl)-4-methyl-N-((4-methylthiazol-2-yl)methyl)thiazole-5-carboxamide]

From patent publication US8318949B2, “Organic compounds” (Novartis AG, priority 2008, dated 2012)
